Assay results reported in patent US9988400B2 (Genentech, Inc., priority 2013, dated 2018).

Target: T1, HEK cells stably transfected with tetracycline inducible hNR1 and hNR2A (Homo sapiens, UniProt Q05586+Q12879)
T1 construct: expressed in transfected cells; host or cells: HEK cells, stably transfected, tetracycline/doxycycline inducible
Experiment: Assay 1: Cell-Based Assay, cytosolic calcium response to positive allosteric modulators (with 30 μM glycine and 300 nM L-glutamate, EC30)
Conditions: Table 2; for EC50: cytosolic calcium response, with 30 μM glycine and 300 nM L-glutamate (EC30), — = no plateau was reached; for Max %: responses scaled relative to 100 μM L-glutamate maximal response (100%) and 0 μM L-glutamate (0%)
Experimental: Assay 1: Cell-Based Assay
HEK cells stably transfected with tetracycline inducible hNR1 and hNR2A were seeded into clear bottom 384 well poly-D-lysine coated plates (2.5×10^4 cells per well) in Minimum Essential Media (MEM; without L-) including 7.5 μg mL^−1 doxycycline and 500 μM (+)-ketamine. The cells were incubated at 37° C. in 5% CO2 for 24 h. For measurement of changes in cytosolic calcium, the seeding media was removed and the cells incubated at 37° C. for 60 min with 1× Becton Dickinson Calcium Assay Kit reagent in Hanks Balanced Salt Solution (HBSS; w/o magnesium, including 1.8 mM calcium, 0.65 mg ml^−1 probenecid and 10 μM (+)-ketamine, pH 7.15) then allowed to equilibrate to rt for 30 min. Concentration-effect curves to Positive Allosteric Modulators (PAMs) were constructed by adding different concentrations (with 30 μM glycine and 300 nM L-glutamate (EC30)) to different wells in HBSS. Compounds were added after a 10 second baseline read and maximum level of relative fluorescence units (RFU) was measured over a 5 min period. Responses were scaled relative to 100 μM L-glutamate maximal response (100%) and 0 μM L-glutamate (0%). EC50 values are provided for compounds reaching maximal response plateaus, and the max % (EC50 (- -)) only if no plateau was reached.
A four-parameter Hill equation was fitted to individual concentration-effect curves:
[formula] in which Y, S0, Sinf, AC50, n and c were effect, lower-asymptote, upper-asymptote, mid-point location, slope parameter, and concentration respectively.

T1 sequence (Q12879 23-1464, other chains not shown): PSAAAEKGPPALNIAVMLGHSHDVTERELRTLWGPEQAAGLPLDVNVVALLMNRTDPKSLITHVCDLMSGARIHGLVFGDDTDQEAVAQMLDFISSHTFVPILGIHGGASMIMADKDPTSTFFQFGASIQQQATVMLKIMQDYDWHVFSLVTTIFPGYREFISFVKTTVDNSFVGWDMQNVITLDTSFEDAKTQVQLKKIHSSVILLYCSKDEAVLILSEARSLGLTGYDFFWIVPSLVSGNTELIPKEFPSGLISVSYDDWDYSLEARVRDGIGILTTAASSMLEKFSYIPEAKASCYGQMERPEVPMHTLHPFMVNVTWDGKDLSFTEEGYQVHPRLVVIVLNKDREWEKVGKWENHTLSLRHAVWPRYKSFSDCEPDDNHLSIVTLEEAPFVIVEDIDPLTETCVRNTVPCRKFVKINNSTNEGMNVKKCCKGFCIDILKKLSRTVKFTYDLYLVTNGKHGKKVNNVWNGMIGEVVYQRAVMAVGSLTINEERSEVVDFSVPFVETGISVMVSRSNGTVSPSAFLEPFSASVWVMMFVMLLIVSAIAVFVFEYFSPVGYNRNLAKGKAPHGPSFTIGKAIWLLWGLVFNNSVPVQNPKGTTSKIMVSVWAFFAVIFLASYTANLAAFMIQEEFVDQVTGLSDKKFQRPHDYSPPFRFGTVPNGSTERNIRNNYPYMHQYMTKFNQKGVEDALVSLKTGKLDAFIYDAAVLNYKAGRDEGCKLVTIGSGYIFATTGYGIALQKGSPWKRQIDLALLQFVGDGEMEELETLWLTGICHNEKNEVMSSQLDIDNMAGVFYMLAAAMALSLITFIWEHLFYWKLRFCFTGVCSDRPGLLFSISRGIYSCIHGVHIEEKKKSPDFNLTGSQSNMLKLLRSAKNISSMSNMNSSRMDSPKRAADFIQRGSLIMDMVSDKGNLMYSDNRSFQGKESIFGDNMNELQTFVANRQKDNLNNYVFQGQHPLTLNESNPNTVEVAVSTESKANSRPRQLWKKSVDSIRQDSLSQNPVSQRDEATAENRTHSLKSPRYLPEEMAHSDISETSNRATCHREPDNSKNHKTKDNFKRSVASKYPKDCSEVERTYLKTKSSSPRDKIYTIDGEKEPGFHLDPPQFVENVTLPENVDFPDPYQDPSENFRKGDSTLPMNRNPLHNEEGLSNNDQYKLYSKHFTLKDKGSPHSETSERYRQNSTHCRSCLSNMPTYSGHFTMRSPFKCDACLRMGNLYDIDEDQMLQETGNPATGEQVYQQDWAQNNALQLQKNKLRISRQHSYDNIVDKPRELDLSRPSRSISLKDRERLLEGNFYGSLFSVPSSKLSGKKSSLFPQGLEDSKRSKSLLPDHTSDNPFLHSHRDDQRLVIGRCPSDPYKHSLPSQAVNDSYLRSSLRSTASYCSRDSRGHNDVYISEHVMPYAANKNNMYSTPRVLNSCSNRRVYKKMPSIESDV

SMILES | EC50 [nM] | Max % [%]
Cc1sc2nc(COc3ccc(F)cc3)cc(=O)n2c1[C@@H]1C[C@H]1C(F)(F)F (relative stereo) [Example 4.24, trans-7-(4-Fluorophenoxymethyl)-2-methyl-3-[2-(trifluoromethyl)cyclopropyl]-5H-[1,3]thiazolo[3,2-a]pyrimidin-5-one] | 2100 | 80
Cc1sc2nc(COc3ccc(F)cc3)cc(=O)n2c1[C@@H]1C[C@H]1CC#N (relative stereo) [Example 4.26, trans-2-[2-[7-(4-Fluorophenoxymethyl)-2-methyl-5-oxo-5H-[1,3]thiazolo[3,2-a]pyrimidin-3-yl]cyclopropyl]acetonitrile] |  | 98.8
Cc1sc2nc(COc3ccc(F)cc3)c(F)c(=O)n2c1[C@@H]1C[C@H]1CO (relative stereo) [Example 4.29, 6-fluoro-7-((4-fluorophenoxy)methyl)-3-(trans-2-(hydroxymethyl)cyclopropyl)-2-methyl-5H-thiazolo[3,2-a]pyrimidin-5-one] | 17500 | 134
CCN(Cc1cc(=O)n2c([C@@H]3C[C@H]3CO)c(C)sc2n1)c1ccccn1 (relative stereo) [Example 5.7, 7-((ethyl(pyridine-2-yl)amino)methyl)-3-(trans-2-(hydroxymethyl)cyclopropyl)-2-methyl-5H-thiazolo[3,2-a] pyrimidin-5-one] | 867 | 160
CCN(Cc1cc(=O)n2c([C@@H]3C[C@H]3CO)c(C)sc2n1)c1ccc(F)cc1 (relative stereo) [Example 5.17, 7-((ethyl(4-fluorophenyl)amino)methyl)-3-(trans-2-(hydroxymethyl)cyclopropyl)-2-methyl-5H-thiazolo[3,2-a] pyrimidin-5-one] | 108 | 176
CCN(Cc1cc(=O)n2c([C@@H]3C[C@H]3CO)csc2n1)c1ccc(F)cc1 (relative stereo) [Example 5.28, 7-[(N-ethyl-4-fluoro-anilino)methyl]-3-[trans-2-(hydroxymethyl)cyclopropyl)thiazolo[3,2-a]pyrimidin-5-one] | 95.2 | 176
CCN(Cc1cc(=O)n2c([C@@H]3C[C@H]3CF)c(C)sc2n1)c1ccc(F)cc1 (relative stereo) [Example 5.39, 7-((ethyl(4-fluorophenyl)amino)methyl)-3-(trans-2-(fluoromethyl)cyclopropyl)-2-methyl-5H-thiazolo[3,2-a]pyrimidin-5-one] | 952 | 167

Further lines, results first:

EC50 [nM] | Max % [%] | SMILES
1000 | 167 | Cc1sc2nc(Cn3nc(C(F)(F)F)cc3C(F)(F)F)cc(=O)n2c1[C@@H]1C[C@H]1CO (relative stereo) [Example 15.2, 7-((3,5-bis(trifluoromethyl)-1H-pyrazol-1-yl)methyl)-3-(trans-2-(hydroxymethyl)cyclopropyl)-2-methyl-5H-thiazolo[3,2-a]pyrimidin-5-one]
489 | 144 | Cc1sc2nc(Cn3nc(Cl)cc3C)cc(=O)n2c1[C@@H]1C[C@H]1CO (relative stereo) [Example 15.3, 7-((3-chloro-5-methyl-1H-pyrazol-1-yl)methyl)-3-(trans-2-(hydroxymethyl)cyclopropyl)-2-methyl-5H-thiazolo[3,2-a]pyrimidin-5-one]
782 | 137 | Cc1cc(Cl)n(Cc2cc(=O)n3c([C@@H]4C[C@H]4CO)c(C)sc3n2)n1 (relative stereo) [Example 15.4, 7-((5-chloro-3-methyl-1H-pyrazol-1-yl)methyl)-3-(trans-2-(hydroxymethyl)cyclopropyl)-2-methyl-5H-thiazolo[3,2-a]pyrimidin-5-one]
1700 | 131 | Cc1sc2nc(Cn3ccc(C(F)(F)F)n3)cc(=O)n2c1[C@@H]1C[C@H]1CO (relative stereo) [Example 15.5, 3-(trans-2-(hydroxymethyl)cyclopropyl)-2-methyl-7-((3-(trifluoromethyl)-1H-pyrazol-1-yl)methyl)-5H-thiazolo[3,2-a]pyrimidin-5-one]
9200 | 138 | Cc1sc2nc(Cn3ncc4ccccc43)cc(=O)n2c1[C@@H]1C[C@H]1CO (relative stereo) [Example 15.6, 7-((1H-indazol-1-yl)methyl)-3-(trans-2-(hydroxymethyl)cyclopropyl)-2-methyl-5H-thiazolo[3,2-a]pyrimidin-5-one]
826 | 158 | Cc1sc2nc(Cn3nc(C(F)(F)F)cc3CCO)cc(=O)n2c1[C@@H]1C[C@H]1CO (relative stereo) [Example 15.7, 7-[[5-(2-hydroxyethyl)-3-(trifluoromethyl)-1H-pyrazol-1-yl]methyl]-3-[trans-2-(hydroxymethyl)cyclopropyl]-2-methyl-5H-[1,3]thiazolo[3,2-a]pyrimidin-5-one]
30800 | 122 | Cc1sc2nc(Cn3nc(CCO)cc3C(F)(F)F)cc(=O)n2c1[C@@H]1C[C@H]1CO (relative stereo) [Example 15.8, 7-((3-(2-hydroxyethyl)-5-(trifluoromethyl)-1H-pyrazol-1-yl)methyl)-3-(trans-2-(hydroxymethyl)cyclopropyl)-2-methyl-5H-thiazolo[3,2-a]pyrimidin-5-one]
151 | 159 | Cc1sc2nc(Cn3nc(C(F)(F)F)cc3C3CC3)cc(=O)n2c1[C@@H]1C[C@H]1CO (relative stereo) [Example 15.11, 7-((5-cyclopropyl-3-(trifluoromethyl)-1H-pyrazol-1-yl)methyl)-3-(trans-2-(hydroxymethyl)cyclopropyl)-2-methyl-5H-thiazolo[3,2-a]pyrimidin-5-one]
2500 | 143 | Cc1sc2nc(Cn3nc(C4CC4)cc3C(F)(F)F)cc(=O)n2c1[C@@H]1C[C@H]1CO (relative stereo) [Example 15.12, 7-((3-cyclopropyl-5-(trifluoromethyl)-1H-pyrazol-1-yl)methyl)-3-(trans-2-(hydroxymethyl)cyclopropyl)-2-methyl-5H-thiazolo[3,2-a]pyrimidin-5-one]
3400 | 137 | Cc1sc2nc(Cn3nc(C4CC4)cc3C3CC3)cc(=O)n2c1[C@@H]1C[C@H]1CO (relative stereo) [Example 15.17, 7[(3,5-dicyclopropylpyrazol-1-yl)methyl]-3-[trans-2-(hydroxymethyl)cyclopropyl]-2-methyl-thiazolo[3,2-a]pyrimidin-5-one]
10500 | 143 | Cc1cc(C)n(Cc2nc3sc(C)c([C@@H]4C[C@H]4CO)n3c(=O)c2F)n1 (relative stereo) [Example 15.18, 7-((3,5-dimethyl-1H-pyrazol-1-yl)methyl)-6-fluoro-3-(trans-2-(hydroxymethyl)cyclopropyl)-2-methyl-5H-thiazolo[3,2-a]pyrimidin-5-one]
512 | 126 | Cc1sc2nc(Cn3nc(C(F)(F)F)cc3C#N)cc(=O)n2c1[C@@H]1C[C@H]1CO (relative stereo) [Example 15.19, 1-((3-(trans-2-(hydroxymethyl)cyclopropyl)-2-methyl-5-oxo-5H-thiazolo[3,2-a]pyrimidin-7-yl)methyl)-3-(trifluoromethyl)-1H-pyrazole-5-carbonitrile]
314 | 153 | Cc1sc2nc(Cn3nc(C(F)(F)F)cc3C3CC3)c(F)c(=O)n2c1[C@@H]1C[C@H]1CO (relative stereo) [Example 15.20, 7-((5-cyclopropyl-3-(trifluoromethyl)-1H-pyrazol-1-yl)methyl)-6-fluoro-3-(trans-2-(hydroxymethyl)cyclopropyl)-2-methyl-5H-thiazolo[3,2-a]pyrimidin-5-one]
1600 | 161 | Cc1sc2nc(Cn3nc(C#N)cc3C)cc(=O)n2c1[C@@H]1C[C@H]1CO (relative stereo) [Example 15.21, 1-[[3-[trans-2-(hydroxymethyl)cyclopropyl]-2-methyl-5-oxo-thiazolo[3,2-a]pyrimidin-7-yl]methyl]-5-methyl-pyrazole-3-carbonitrile]
704 | 149 | Cc1sc2nc(Cn3nc(C(F)F)cc3C)cc(=O)n2c1[C@@H]1C[C@H]1CO (relative stereo) [Example 15.22, 7[[3-(difluoromethyl)-5-methyl-pyrazol-1-yl]methyl]-3-[trans-2-(hydroxymethyl)cyclopropyl]-2-methyl-thiazolo[3,2-a]pyrimidin-5-one]
1900 | 143 | Cc1sc2nc(Cn3ncc4ccc(F)cc43)cc(=O)n2c1[C@@H]1C[C@H]1CO (relative stereo) [Example 15.23, 7-[(6-fluoroindazol-1-yl)methyl]-3-[trans-2-(hydroxymethyl)cyclopropyl]-2-methyl-thiazolo[3,2-a]pyrimidin-5-one]
